Like-named read-outs stand apart in the source and are kept apart here.
Legend:
[1] = target: T1, ERK2[2-360(p-T185/p-Y187)]-Avi (Homo sapiens, UniProt P28482); experiment: Biochemical assay (HTRF competition assay); format: binding; settings: HTRF competition with Example 15 probe, overnight at RT; read-out: Biochemical qualified AC50
T1 construct: 400 pM ERK2[2-360(p-T185/p-Y187)]-Avi was added to the plate
Protocol: The competition assays were performed at RT in a 384-well white polystyrene, flat bottom plate (Greiner #784075) using a final reaction volume of 15 μL and the following assay buffer conditions: 50 mM MOPS, pH 7.2, 10 mM MgCl2, 0.5 mM TCEP, 0.01% Triton-X-100. 75 nL of a 10 mM compound solution in DMSO or 100% DMSO (12 point titration, final concentration: 50 μM-300 pM; final DMSO: 0.5%) was added using an acoustic liquid handler (Echo, Beckman Coulter) to wells containing 7.5 μL of 1-(6-((R)-3-(1-(5-chloro-1-((tetrahydro-2H-pyran-4-yl)methyl)-1H-indole-3-carbonyl)-4-(4-fluorophenyl)piperidine-4-carboxamido)pyrrolidin-1-yl)-6-oxohexyl)-3,3-dimethyl-5-sulfo-2-((1E,3E)-5-((E)-1,3,3-trimethyl-5-sulfoindolin-2-ylidene)penta-1,3-dien-1-yl)-3H-indol-1-ium (Example 15); 7.5 μL 400 pM SA-Tb (Cisbio, 610SATLB) and 400 pM ERK2[2-360(p-T185/p-Y187)]-Avi was added to the plate and incubated overnight at RT. HTRF signal was measured using a microplate reader (PheraStar, BMG Labtech) with excitation and emission wavelengths of […], respectively. The inhibitor dose-response curves were analyzed from the HTRF ratio signal using normalized IC50 regression curve fitting with control-based normalization.

[2] = test system: WM793 cells; experiment: Cell proliferation assay (CellTiter-Glo); format: cell-based; settings: 3 d, read-out: Cell proliferation qualified AC50
Protocol: (§1) Cancer cell media was prepared by adding 500 mL of RPMI (ThermoFisher cat ##22400-089) and 10% Fetal Bovine Serum (Gibco) for WM793 cells (ATCC Cat #CRL-2806, RRID: CVCL 8787) and F12K (Thermo Fisher cat #21127-022, 500 mL; or 21127-030, 10×500 mL)+10% FBS for PC3 (ATCC CRL-1435) cells. The entire media with supplements was filter sterilized through a 0.4 μm bottle top filter system. Cancer cell lines were detached from traditional cell culture flasks by washing three times with 1×PBS and adding an appropriate amount of 0.25% TrypLE™ Express Enzyme (1×), no phenol red (ThermoFisher cat #12604013) to create a thin layer over the cells. Trypsin was neutralized with media containing serum and proceeded to count the cells.
After counting the cells, the concentration of the cell solution was adjusted to seed a total of 750 cells per well in 50 μL of complete media into 384-well tissue culture treated plates. In a biological safety cabinet, cells were seeded using a sterilized small stainless steel tipped cassette on a Multi-drop Combi. Between different cell lines, the tubing of the cassette was flushed with 1× sterile PBS for 10 seconds. Alternatively, cells can be seeded using a Multi-flow located within a Hepa filtered robotics room using either a sterilized small sapphire jewel tipped cassette and the peristatic pump, or the attached syringe pump, depending on volume of plates per cell line needed. The plates were placed in an incubator set at 37° C., with 5% CO2 and 95% relative humidity. A 10-point, 3-fold serial dilutions of compounds in 100% DMSO was prepared on a liquid handling robot with a 10 mM top concentration. 100 nL/well in three assay plates/1 compound was dispensed to source plate, with the highest concentration at 20 μM. After addition of compound was complete, plates were placed into an incubator at 37° C., with 5% CO2 and 95% relative humidity for 3 d. An adequate volume of CellTiter-Glo® (Promega #G7571) detection reagent was pre-warmed to RT or in a 37° C. H2O bath. 25 μL of the reagent was added to each well using either a Multi-drop Combi or MultiFlo and incubate at RT for at least 15 min. Luminesce was captured on a plate luminometer such as an Envision or View Lux to measure Day 0 time point both select cell lines. LUM plus, gain 3500, 0.1 s and focal height 12.5 mm on PheraStar reader. At Day 3, an adequate volume of CellTiter-Glo® detection reagent was pre-warmed at RT or in a 37° C. H2O bath. A total of 25 μL of the reagent was added to each well using either a Multi-drop Combi or MultiFlo and incubate at RT for at least 15 min. Luminesce was captured on a plate luminometer such as an Envision or View Lux to measure Day 3 time point both select cell lines. LUM plus, gain 3500, 0.1 s and focal height 12.5 mm on PheraStar reader. Raw data was extracted from the instrument and all fields containing test compounds were normalized to the average of all wells containing DMSO alone from Day 3 as neutral control and Day 0 starting numbers. From this value, percent growth inhibition of each compound was calculated. Dose response curves and growth inhibitory IC50s were generated by graphing the normalized data values against the compound concentration using a program such as GraphPad™ or Excel Fit.

[3] = target: T2, nanobit-large-bit-ERK2 and nanobit-small-bit-PEA15 in WM793 cells (Homo sapiens, UniProt P28482); experiment: NanoBiT assay; format: cell-based; settings: WM793 nanobit stable cell line, overnight incubation; read-out: NanoBiT qualified absolute AC50
T2 construct: expressed in transfected cells
Protocol: as §1
A nanobit stable cell line was generated using WM793 cells with nanobit-large-bit-ERK2 and nanobit-small-bit-PEA15. […] In a biological safety cabinet, cells were seeded using a sterilized small stainless steel tipped cassette on a Multi-drop Combi. Between different cell lines, the tubing of the cassette was flushed with 1× sterile PBS for 10 s. Alternatively, cells can be seeded using a Multi-flow located within a Hepa filtered robotics room using either a sterilized small sapphire jewel tipped cassette and the peristatic pump, or the attached syringe pump, depending on volume of plates per cell line needed. The plates were placed in an incubator set at 37° C., with 5% CO2 and 95% relative humidity. A 10-point, 3-fold serial dilution of compounds was prepared in 100% DMSO on a liquid handling robot with a 10 mM top concentration. 90 nl/well was dispensed in three assay plates/1 compound source plate, with the highest concentration at 30 μM. After addition of compound was complete, the plates were placed into an incubator at 37° C., with 5% CO2 and 95% relative humidity for overnight. Luminescence was captured on a plate luminometer such as an Envision or View Lux to measure Day 0 time point both select cell lines. LUM plus, gain 3500, 0.1 s and focal height 12.5 [mm] on PheraStar reader. The raw data was extracted from the instrument and normalized all fields containing test compounds to the average of all wells containing DMSO alone as neutral control. From this value, the percent growth inhibition was calculated for each compound. Dose response curves and inhibitory IC50s were generated by graphing the normalized data values against the compound concentration using either a program such as GraphPad™ or Excel Fit.

T2 sequence (P28482 whole entry): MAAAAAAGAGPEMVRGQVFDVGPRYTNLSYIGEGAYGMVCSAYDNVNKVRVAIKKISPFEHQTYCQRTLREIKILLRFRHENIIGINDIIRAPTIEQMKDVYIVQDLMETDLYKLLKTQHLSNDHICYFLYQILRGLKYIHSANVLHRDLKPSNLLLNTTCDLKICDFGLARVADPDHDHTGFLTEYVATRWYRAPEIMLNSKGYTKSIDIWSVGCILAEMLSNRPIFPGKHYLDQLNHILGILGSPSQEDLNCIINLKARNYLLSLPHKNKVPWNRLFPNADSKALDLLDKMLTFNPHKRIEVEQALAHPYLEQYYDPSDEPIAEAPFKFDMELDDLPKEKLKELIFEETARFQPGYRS
T1 sequence (P28482 2-360 limits assumed): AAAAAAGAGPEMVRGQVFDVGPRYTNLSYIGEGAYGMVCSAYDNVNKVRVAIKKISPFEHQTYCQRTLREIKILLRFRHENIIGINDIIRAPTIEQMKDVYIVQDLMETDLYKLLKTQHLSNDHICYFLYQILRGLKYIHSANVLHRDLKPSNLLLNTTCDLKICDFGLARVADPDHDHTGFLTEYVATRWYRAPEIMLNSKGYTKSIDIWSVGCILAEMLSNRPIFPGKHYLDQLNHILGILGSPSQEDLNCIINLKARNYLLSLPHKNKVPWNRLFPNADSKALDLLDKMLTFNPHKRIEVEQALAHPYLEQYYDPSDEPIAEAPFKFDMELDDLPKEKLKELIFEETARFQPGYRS

SMILES | AC50 [1] [nM] | AC50 [2] [nM] | AC50 [3] [nM] | AC50 ([2]; Homo sapiens, WM793, 72 h) [nM]
CCc1c(C[C@H]2CC[C@H](OC3CCOCC3)CC2)c2ccc(F)cc2n1C(=O)N1CC[C@@](C(=O)N[C@H]2CC[C@H](C(=O)O)C[C@@H]2C)(c2ccc(F)cc2)C[C@@H]1C [Example 6, (1S,3S,4S)-4-((2S,4S)-1-(2-ethyl-6-fluoro-3-(((1r,4S)-4-((tetrahydro-2H-pyran-4-yl)oxy)cyclohexyl)methyl)-1H-indole-1-carbonyl)-4-(4-fluorophenyl)-2-methylpiperidine-4-carboxamido)-3-methylcyclohexane-1-carboxylic acid] | 0.98 | 23 | 72 | 
Cc1c(C[C@H]2CC[C@H](OC(C)C)CC2)c2ccc(F)cc2n1C(=O)N1CC[C@@](C(=O)N[C@H]2CC[C@H](C(=O)O)C[C@@H]2C)(c2ccc(F)cc2)C[C@@H]1C [Example 1l] | < 0.28 |  | 270 | 18
COCCc1c(C[C@H]2CC[C@H](OC(C)C)CC2)c2ccc(Cl)cc2n1C(=O)N1CCC(C(=O)N[C@H]2CC[C@H](C(=O)O)C[C@@H]2C)(c2ccc(F)cc2)CC1 [Example 1g] | < 0.28 |  | 210 | 93
C[C@H]1C[C@@H](C(=O)O)CC[C@@H]1NC(=O)[C@@]1(c2ccc(F)cc2)CCN(C(=O)N2CC([C@H]3CC[C@H](OC4CCOCC4)CC3)c3ccc(F)cc32)[C@@H](C)C1 (single isomer, unassigned) [Example 4a] | 0.87 |  | 24 | 4
CCO[C@H]1CC[C@H](Cc2c(C)n(C(=O)N3CC[C@@](C(=O)N[C@H]4CC[C@H](C(=O)O)C[C@@H]4C)(c4ccc(F)cc4)C[C@@H]3C)c3cc(F)ccc23)OC1 (mixture of isomers) [Example 8, (1S,3S,4S)-4-((2S,4S)-1-(3-((trans-5-ethoxytetrahydro-2H-pyran-2-yl)methyl)-6-fluoro-2-methyl-1H-indole-1-carbonyl)-4-(4-fluorophenyl)-2-methylpiperidine-4-carboxamido)-3-methylcyclohexane-1-carboxylic acid] | < 0.28 |  | 31 | 15
CC(C)O[C@H]1CC[C@H](Cn2c(C=O)c(C(=O)N3CCC(C(=O)N[C@H]4CC[C@H](C(=O)O)C[C@@H]4C)(c4ccc(F)cc4)CC3)c3cc(Cl)ccc32)CC1 [Example 11h] | < 0.28 |  | 54 | 120
COCCc1c(C[C@H]2CC[C@H](OC(C)C)CC2)c2ccc(F)cc2n1C(=O)N1CCC(C(=O)N[C@H]2CC[C@H](C(=O)O)C[C@@H]2C)(c2ccc(F)cc2)CC1 [Example 3, (1S,3S,4S)-4-(1-(6-fluoro-3-(((1r,4S)-4-isopropoxycyclohexyl)methyl)-2-(2-methoxyethyl)-1H-indole-1-carbonyl)-4-(4-fluorophenyl)piperidine-4-carboxamido)-3-methylcyclohexane-1-carboxylic acid] | 0.5 |  | 46 | 60
Cc1c(C[C@H]2CC[C@H](OC3CCOCC3)CC2)c2ccc(F)cc2n1C(=O)N1CC[C@@](C(=O)N[C@H]2CC[C@H](C(=O)O)C[C@@H]2C)(c2ccc(F)cc2)C[C@@H]1C [Example 9, (1S,3S,4S)-4-((2S,4S)-1-(6-fluoro-2-methyl-3-(((1r,4S)-4-((tetrahydro-2H-pyran-4-yl)oxy)cyclohexyl)methyl)-1H-indole-1-carbonyl)-4-(4-fluorophenyl)-2-methylpiperidine-4-carboxamido)-3-methylcyclohexane-1-carboxylic acid] | 0.44 |  | 26 | 5.9
C[C@H]1C[C@@H](C(=O)O)CC[C@@H]1NC(=O)C1(c2ccc(F)cc2)CCN(C(=O)n2c3c(c4ccc(F)cc42)[C@@H](c2ccccc2)OCC3)CC1 (single isomer, unassigned) [Example 10b] | 37 |  | 12000 | 10000
C[C@H]1C[C@@H](C(=O)O)CC[C@@H]1NC(=O)[C@@]1(c2ccc(F)cc2)CCN(C(=O)n2c3c(c4ccc(F)cc42)C(C2CCOCC2)OCC3)[C@@H](C)C1 (single isomer, unassigned) [Example 10] | < 0.28 |  | 280 | 40
CCc1c(C[C@H]2CC[C@H](OC3CCOCC3)CC2)c2ccc(F)cc2n1C(=O)N1CCC(C(=O)N[C@H]2CC[C@H](C(=O)O)CC2(C)C)(c2ccc(F)cc2)CC1 [Example 1e] | < 0.28 |  | 19 | 70
CC(C)O[C@H]1CC[C@H](Cn2c(C=O)c(C(=O)N3CCC(C(=O)N[C@H]4CC[C@H](C(=O)O)C[C@@H]4C)(c4ccc(F)cc4)CC3)c3cc(Cl)cnc32)CC1 [Example 11g] | 0.36 |  | 270 | 610
Cc1c(CC2CCC(OC(C)C)CO2)c2ccc(F)cc2n1C(=O)N1CC[C@@](C(=O)N[C@H]2CC[C@H](C(=O)O)C[C@@H]2C)(c2ccc(F)cc2)C[C@@H]1C (stereo partly drawn) [Example 1i] | < 0.28 |  | 31 | 15
CCOC1CCC(Cc2c(C)n(C(=O)N3CC[C@@](C(=O)N[C@H]4CC[C@H](C(=O)O)C[C@@H]4C)(c4ccc(F)cc4)C[C@@H]3C)c3cc(F)ccc23)OC1 (single isomer, unassigned) [Example 8a] | < 0.28 |  | 28 | 13
CCc1c(CC2CCOCC2)c2ccc(F)cc2n1C(=O)N1CCC(C(=O)N[C@H]2CC[C@H](C(=O)O)C[C@@H]2C)(c2ccc(F)cc2)CC1 [Example 1h] | < 0.28 |  | 55 | 16

Source: patent US20250092036A1, “COMPOUNDS AND COMPOSITIONS FOR MODULATING THE ACTIVITY OF ERK” (Novartis AG, priority 2023, published 2025)
